Source: patent publication US11149023B2, “Substituted triazole derivatives and uses thereof” (Bayer Pharma Aktiengesellschaft, priority 2017, dated 2021)

Tests used:
[1] = molecular target: human V1a receptor (Homo sapiens (Human), UniProt P37288); assay: Cellular in vitro assay for determining vasopressin receptor activity (V1a, aequorin luminescence); assay type: cell-based; settings: for IC50: CHO cell line transfected with human V1a receptor, [Arg8]-vasopressin at EC50 concentration, read-out: IC50 hV1a; for ratio IC50 hV2/hV1a: selectivity, IC50 hV2 divided by IC50 hV1a
Procedure: (§1) B-1. Cellular In Vitro Assay for Determining Vasopressin Receptor Activity
(§2) The identification of agonists and antagonists of the V1a and V2 vasopressin receptors from humans, rats and dogs as well as the quantification of the activity of the compounds of the invention is carried out using recombinant cell lines. These cell lines originally derive from a hamster's ovary epithelial cell (Chinese Hamster Ovary, CHO K1, ATCC: American Type Culture Collection, Manassas, Va. 20108, USA). The test cell lines constitutively express the human, rat or dog V1a or V2 receptors. In case of the Gαq-coupled V1a receptors, cells are also stably transfected with a modified form of the calcium-sensitive photoproteins aequorin (human and rat V1a) or obe-lin (dog V1a), which, after reconstitution with the cofactor coelenterazine, emit light when there are increases in free calcium concentrations [Rizzuto R, Simpson A W, Brini M, Pozzan T, Nature 358, 325-327 (1992); Illarionov B A, Bondar V S, Illarionova V A, Vysotski E S, Gene 153 (2), 273-274 (1995)]. The resulting vasopressin receptor cells react to stimulation of the recombinantly expressed Via receptors by intracellular release of calcium ions, which can be quantified by the resulting photoprotein luminescence. The Gs-coupled V2 receptors are stably transfected into cell lines expressing the gene for firefly luciferase under control of a CRE-responsible promoter. Activation of V2 receptors induces the activation of the CRE-responsive promoter via cAMP increase, thereby inducing the expression of firefly luciferase. The light emitted by photoproteins of V1a cell lines as well as the light emitted by firefly luciferase of V2 cell lines corresponds to the activation or inhibition of the respective vasopressin receptor. The bioluminescence of the cell lines is detected using a suitable luminometer [Milligan G, Marshall F, Rees S, Trends in Pharmacological Sciences 17, 235-237 (1996)].
Vasopressin V1a Receptor Cell Lines:
On the day before the assay, the cells are plated out in culture medium (DMEM/F12, 2% FCS, 2 mM glutamine, 10 mM HEPES, 5 μg/ml coelenterazine) in 384-well microtiter plates and kept in a cell incubator (96% humidity, 5% v/v CO2, 37° C.). On the day of the assay, test compounds in various concentrations are placed for 10 minutes in the wells of the microtiter plate before the agonist [Arg^8]-vasopressin at EC50 concentration is added. The resulting light signal is measured immediately in a luminometer.
(§3) Table 1A below lists individual IC50 values for the compounds of the invention (including racemic mixtures as well as separated enantiomers) that were obtained from cell lines transfected with the human Via or V2 receptor: […]

[2] = molecular target: human V2 receptor (Homo sapiens (Human), UniProt P30518); assay: Cellular in vitro assay for determining vasopressin receptor activity (V2, CRE-luciferase); assay type: cell-based; settings: CHO cell line transfected with human V2 receptor; [Arg8]-vasopressin at EC50 concentration; read-out: IC50 hV2
Procedure: as §1, §2
Vasopressin V2 Receptor Cell Lines:
On the day before the assay, the cells are plated out in culture medium (DMEM/F12, 2% FCS, 2 mM glutamine, 10 mM HEPES) in 384-well microtiter plates and kept in a cell incubator (96% humidity, 5% v/v CO2, 37° C.). On the day of the assay, test compounds in various concentrations and the agonist [Arg^8]-vasopressin at EC50 concentration are added together to the wells, and plates are incubated for 3 hours in a cell incubator. Upon addition of the cell lysis reagent Triton™ and the substrate luciferin, luminescence of firefly luciferase is measured in a luminometer.
as §3

Chain of human V1a receptor (P37288 whole entry): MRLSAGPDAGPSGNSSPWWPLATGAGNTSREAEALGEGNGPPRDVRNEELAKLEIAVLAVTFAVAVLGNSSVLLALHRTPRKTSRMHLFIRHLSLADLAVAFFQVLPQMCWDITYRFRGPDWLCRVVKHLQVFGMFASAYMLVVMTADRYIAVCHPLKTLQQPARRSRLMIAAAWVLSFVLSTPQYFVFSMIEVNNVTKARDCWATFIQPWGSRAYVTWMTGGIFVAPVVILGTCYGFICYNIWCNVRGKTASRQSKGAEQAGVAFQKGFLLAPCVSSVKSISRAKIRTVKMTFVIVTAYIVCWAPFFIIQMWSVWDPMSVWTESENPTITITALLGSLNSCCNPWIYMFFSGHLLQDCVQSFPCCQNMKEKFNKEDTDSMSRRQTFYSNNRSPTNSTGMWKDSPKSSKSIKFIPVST
Chain of human V2 receptor (P30518 whole entry): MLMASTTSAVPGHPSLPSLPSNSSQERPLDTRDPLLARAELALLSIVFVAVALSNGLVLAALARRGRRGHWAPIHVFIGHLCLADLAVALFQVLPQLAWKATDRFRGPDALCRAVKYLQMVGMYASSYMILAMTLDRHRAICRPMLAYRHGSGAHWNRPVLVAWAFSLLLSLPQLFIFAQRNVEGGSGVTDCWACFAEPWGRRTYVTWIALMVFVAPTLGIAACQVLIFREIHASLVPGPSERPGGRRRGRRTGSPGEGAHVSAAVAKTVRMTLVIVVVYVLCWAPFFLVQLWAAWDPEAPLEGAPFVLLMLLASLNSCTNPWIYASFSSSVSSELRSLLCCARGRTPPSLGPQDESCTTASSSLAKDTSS

Row | SMILES | IC50 [1] | ratio IC50 hV2/hV1a [1] | IC50 [2]
1 | O=C(NC(Cn1c(-c2ccc(Cl)cc2)nn(Cc2ncn(-c3ncccc3Cl)n2)c1=O)C(F)(F)F)C1(C(F)(F)F)CC1 (racemic) [Example 41, N-{3-[3-(4-Chlorophenyl)-1-{[1-(3-chloropyridin-2-yl)-1H-1,2,4-triazol-3-yl]methyl}-5-oxo-1,5-dihydro-4H-1,2,4-triazol-4-yl]-1,1,1-trifluoropropan-2-yl}-1-(trifluoromethyl)cyclopropane-carboxamide] | 1.5 nM | 38.0 | 57 nM
2 | CS(=O)(=O)CC(=O)NC(Cn1c(-c2ccc(Cl)cc2)nn(Cc2ncn(-c3ncccc3Cl)n2)c1=O)C(F)(F)F (racemic) [Example 44, N-{3-[3-(4-Chlorophenyl)-1-{[1-(3-chloropyridin-2-yl)-1H-1,2,4-triazol-3-yl]methyl}-5-oxo-1,5-dihydro-4H-1,2,4-triazol-4-yl]-1,1,1-trifluoropropan-2-yl}-2-(methylsulfonyl)acetamide] | 1.75 nM | 68.6 | 120 nM
3 | O=C(NC(Cn1c(-c2ccc(Cl)cc2)nn(Cc2ncn(-c3ncccc3Cl)n2)c1=O)C(F)(F)F)[C@@H]1C[C@H](F)CN1 (mixture of isomers) [Example 48, N-{3-[3-(4-Chlorophenyl)-1-{[1-(3-chloropyridin-2-yl)-1H-1,2,4-triazol-3-yl]methyl}-5-oxo-1,5-dihydro-4H-1,2,4-triazol-4-yl]-1,1,1-trifluoropropan-2-yl}-4-fluoro-prolinamide] | 5.4 nM |  | 305 nM
4 | O=C(NC(Cn1c(-c2ccc(Cl)cc2)nn(Cc2ncn(-c3ncccc3Cl)n2)c1=O)C(F)(F)F)[C@@H]1C[C@@H](F)CN1 (mixture of isomers) [Example 49, N-{3-[3-(4-Chlorophenyl)-1-{[1-(3-chloropyridin-2-yl)-1H-1,2,4-triazol-3-yl]methyl}-5-oxo-1,5-dihydro-4H-1,2,4-triazol-4-yl]-1,1,1-trifluoropropan-2-yl}-4-fluoro-prolinamide] | 3.35 nM |  | 378 nM
5 | O=C(NC(Cn1c(-c2ccc(Cl)cc2)nn(Cc2ncn(-c3ncccc3Cl)n2)c1=O)C(F)(F)F)c1ccc(Cl)s1 (racemic) [Example 52, 5-Chloro-N-{3-[3-(4-chlorophenyl)-1-{[1-(3-chloropyridin-2-yl)-1H-1,2,4-triazol-3-yl]methyl}-5-oxo-1,5-dihydro-4H-1,2,4-triazol-4-yl]-1,1,1-trifluoropropan-2-yl}thiophene-2-carboxamide] | 2.8 nM | 167.9 | 470 nM
6 | O=C(NC(Cn1c(-c2ccc(Cl)cc2)nn(Cc2ncn(-c3ncccc3C(F)(F)F)n2)c1=O)C(F)(F)F)C1(C(F)(F)F)CC1 (racemic) [Example 58, N-{3-[3-(4-Chlorophenyl)-5-oxo-1-({1-[3-(trifluoromethyl)pyridin-2-yl]-1H-1,2,4-triazol-3-yl}methyl)-1,5-dihydro-4H-1,2,4-triazol-4-yl]-1,1,1-trifluoropropan-2-yl}-1-(trifluoromethyl)cyclopropane-1-carboxamide] | 3 nM | 40.2 | 120 nM
7 | O=C(CCC(F)(F)F)NC(Cn1c(-c2ccc(Cl)cc2)nn(Cc2ncn(-c3ncccc3C(F)(F)F)n2)c1=O)C(F)(F)F (racemic) [Example 59, N-{3-[3-(4-Chlorophenyl)-5-oxo-1-({1-[3-(trifluoromethyl)pyridin-2-yl]-1H-1,2,4-triazol-3-yl}methyl)-1,5-dihydro-4H-1,2,4-triazol-4-yl]-1,1,1-trifluoropropan-2-yl}-4,4,4-trifluorobutanamide] | 1.9 nM | 39.5 | 75 nM
8 | CC(F)(F)C(=O)NC(Cn1c(-c2ccc(Cl)cc2)nn(Cc2ncn(-c3ncccc3C(F)(F)F)n2)c1=O)C(F)(F)F (racemic) [Example 60, N-{3-[3-(4-Chlorophenyl)-5-oxo-1-({1-[3-(trifluoromethyl)pyridin-2-yl]-1H-1,2,4-triazol-3-yl}methyl)-1,5-dihydro-4H-1,2,4-triazol-4-yl]-1,1,1-trifluoropropan-2-yl}-2,2-difluoropropanamide] | 18.5 nM | 83.8 | 1550 nM
9 | O=C(CF)NC(Cn1c(-c2ccc(Cl)cc2)nn(Cc2ncn(-c3ncccc3C(F)(F)F)n2)c1=O)C(F)(F)F (racemic) [Example 61, N-{3-[3-(4-Chlorophenyl)-5-oxo-1-({1-[3-(trifluoromethyl)pyridin-2-yl]-1H-1,2,4-triazol-3-yl}methyl)-1,5-dihydro-4H-1,2,4-triazol-4-yl]-1,1,1-trifluoropropan-2-yl}-2-fluoroacetamide] | 50 nM | 76.0 | 3800 nM
10 | O=C(NC(Cn1c(-c2ccc(Cl)cc2)nn(Cc2ncn(-c3ncccc3C(F)(F)F)n2)c1=O)C(F)(F)F)C1CS(=O)(=O)C1 (racemic) [Example 62, N-{3-[3-(4-Chlorophenyl)-5-oxo-1-({1-[3-(trifluoromethyl)pyridin-2-yl]-1H-1,2,4-triazol-3-yl}methyl)-1,5-dihydro-4H-1,2,4-triazol-4-yl]-1,1,1-trifluoropropan-2-yl}-1,1-dioxo-1lambda^6-thietane-3-carboxamide] | 1.6 nM | 103.1 | 165 nM
11 | O=C(NC(Cn1c(-c2ccc(Cl)cc2)nn(Cc2ncn(-c3ncccc3C(F)(F)F)n2)c1=O)C(F)(F)F)C1CC(F)(F)C1 (racemic) [Example 63, N-{3-[3-(4-Chlorophenyl)-5-oxo-1-({1-[3-(trifluoromethyl)pyridin-2-yl]-1H-1,2,4-triazol-3-yl}methyl)-1,5-dihydro-4H-1,2,4-triazol-4-yl]-1,1,1-trifluoropropan-2-yl}-3,3-difluorocyclobutane-1-carboxamide] | 0.72 nM | 82.2 | 58.8 nM
12 | CS(=O)(=O)CC(=O)NC(Cn1c(-c2ccc(Cl)cc2)nn(Cc2ncn(-c3ncccc3C(F)(F)F)n2)c1=O)C(F)(F)F (racemic) [Example 64, N-{3-[3-(4-Chlorophenyl)-5-oxo-1-({1-[3-(trifluoromethyl)pyridin-2-yl]-1H-1,2,4-triazol-3-yl}methyl)-1,5-dihydro-4H-1,2,4-triazol-4-yl]-1,1,1-trifluoropropan-2-yl}-2-(methanesulfonyl)acetamide] | 1.2 nM | 65.2 | 78.2 nM
13 | N#CC1(C(=O)NC(Cn2c(-c3ccc(Cl)cc3)nn(Cc3ncn(-c4ncccc4C(F)(F)F)n3)c2=O)C(F)(F)F)CC1 (racemic) [Example 65, N-{3-[3-(4-Chlorophenyl)-5-oxo-1-({1-[3-(trifluoromethyl)pyridin-2-yl]-1H-1,2,4-triazol-3-yl}methyl)-1,5-dihydro-4H-1,2,4-triazol-4-yl]-1,1,1-trifluoropropan-2-yl}-1-cyanocyclopropane-1-carboxamide] | 9.1 nM | 53.8 | 490 nM
14 | O=C(CC(F)(F)F)NC(Cn1c(-c2ccc(Cl)cc2)nn(Cc2ncn(-c3ncccc3C(F)(F)F)n2)c1=O)C(F)(F)F (racemic) [Example 67, N-{3-[3-(4-Chlorophenyl)-5-oxo-1-({1-[3-(trifluoromethyl)pyridin-2-yl]-1H-1,2,4-triazol-3-yl}methyl)-1,5-dihydro-4H-1,2,4-triazol-4-yl]-1,1,1-trifluoropropan-2-yl}-3,3,3-trifluoropropanamide] | 1.15 nM | 49.6 | 57 nM
15 | COCC(=O)NC(Cn1c(-c2ccc(Cl)cc2)nn(Cc2ncn(-c3ncccc3C(F)(F)F)n2)c1=O)C(F)(F)F (racemic) [Example 68, N-{3-[3-(4-Chlorophenyl)-5-oxo-1-({1-[3-(trifluoromethyl)pyridin-2-yl]-1H-1,2,4-triazol-3-yl}methyl)-1,5-dihydro-4H-1,2,4-triazol-4-yl]-1,1,1-trifluoropropan-2-yl}-2-methoxyacetamide] | 6.15 nM | 86.2 | 530 nM
